AC50 data for 30 compounds are collected here from ChEMBL document CHEMBL5291721, “A preclinical secondary pharmacology resource illuminates target-adverse drug reaction associations of marketed drugs” (Nat Commun, 2023).

In assay [1] the target is T1, 5-hydroxytryptamine receptor 1A (Homo sapiens, UniProt P08908).
T1 sequence (P08908 whole entry): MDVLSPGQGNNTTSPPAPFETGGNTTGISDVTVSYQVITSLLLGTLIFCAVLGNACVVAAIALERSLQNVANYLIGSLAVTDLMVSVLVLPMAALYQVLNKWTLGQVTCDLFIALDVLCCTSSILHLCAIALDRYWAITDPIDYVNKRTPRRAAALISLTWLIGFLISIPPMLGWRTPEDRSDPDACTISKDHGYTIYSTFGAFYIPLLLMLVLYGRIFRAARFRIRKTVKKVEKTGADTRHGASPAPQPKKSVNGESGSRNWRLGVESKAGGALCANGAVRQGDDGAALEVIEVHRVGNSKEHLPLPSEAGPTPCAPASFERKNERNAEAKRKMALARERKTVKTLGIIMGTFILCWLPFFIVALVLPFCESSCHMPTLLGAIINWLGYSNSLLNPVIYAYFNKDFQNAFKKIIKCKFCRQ

For assay [2], the target named is Sodium-dependent dopamine transporter (Homo sapiens, UniProt Q01959).
A further assay has as its target Prothrombin (Homo sapiens, UniProt P00734). The assay is classed as functional.
Assay [3] concerns the target T2, Progesterone receptor (Homo sapiens, UniProt P06401).
T2 sequence (P06401 whole entry): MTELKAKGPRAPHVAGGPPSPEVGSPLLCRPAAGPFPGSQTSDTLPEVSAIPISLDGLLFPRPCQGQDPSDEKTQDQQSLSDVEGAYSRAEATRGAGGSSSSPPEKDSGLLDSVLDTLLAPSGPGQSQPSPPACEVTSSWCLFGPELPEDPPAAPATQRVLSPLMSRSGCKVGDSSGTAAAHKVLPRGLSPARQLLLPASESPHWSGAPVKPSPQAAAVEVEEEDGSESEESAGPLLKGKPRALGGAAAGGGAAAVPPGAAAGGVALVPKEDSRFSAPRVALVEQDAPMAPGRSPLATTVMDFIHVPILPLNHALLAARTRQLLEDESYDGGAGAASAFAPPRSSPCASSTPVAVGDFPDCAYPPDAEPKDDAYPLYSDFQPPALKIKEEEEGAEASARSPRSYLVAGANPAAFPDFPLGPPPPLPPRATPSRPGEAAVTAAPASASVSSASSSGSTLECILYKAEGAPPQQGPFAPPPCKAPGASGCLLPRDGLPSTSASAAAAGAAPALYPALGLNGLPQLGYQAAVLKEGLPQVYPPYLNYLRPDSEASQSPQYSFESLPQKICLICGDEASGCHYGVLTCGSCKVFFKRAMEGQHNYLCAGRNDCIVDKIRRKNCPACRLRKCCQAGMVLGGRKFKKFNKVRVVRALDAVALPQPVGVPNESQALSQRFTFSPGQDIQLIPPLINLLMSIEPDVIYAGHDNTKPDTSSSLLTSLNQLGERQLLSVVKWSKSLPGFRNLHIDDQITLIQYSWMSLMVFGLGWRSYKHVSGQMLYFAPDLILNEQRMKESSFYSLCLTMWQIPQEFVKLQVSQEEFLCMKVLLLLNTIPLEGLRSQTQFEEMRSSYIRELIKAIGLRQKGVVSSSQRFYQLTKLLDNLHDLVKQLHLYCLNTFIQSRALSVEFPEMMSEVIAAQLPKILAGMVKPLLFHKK

Assay [4] concerns the target T2, Progesterone receptor. It is filed as functional.

A value given as a limit tells only on which side of the number the result lay.
Further: assay procedure not described here.

Chain of Sodium-dependent dopamine transporter (Q01959 whole entry): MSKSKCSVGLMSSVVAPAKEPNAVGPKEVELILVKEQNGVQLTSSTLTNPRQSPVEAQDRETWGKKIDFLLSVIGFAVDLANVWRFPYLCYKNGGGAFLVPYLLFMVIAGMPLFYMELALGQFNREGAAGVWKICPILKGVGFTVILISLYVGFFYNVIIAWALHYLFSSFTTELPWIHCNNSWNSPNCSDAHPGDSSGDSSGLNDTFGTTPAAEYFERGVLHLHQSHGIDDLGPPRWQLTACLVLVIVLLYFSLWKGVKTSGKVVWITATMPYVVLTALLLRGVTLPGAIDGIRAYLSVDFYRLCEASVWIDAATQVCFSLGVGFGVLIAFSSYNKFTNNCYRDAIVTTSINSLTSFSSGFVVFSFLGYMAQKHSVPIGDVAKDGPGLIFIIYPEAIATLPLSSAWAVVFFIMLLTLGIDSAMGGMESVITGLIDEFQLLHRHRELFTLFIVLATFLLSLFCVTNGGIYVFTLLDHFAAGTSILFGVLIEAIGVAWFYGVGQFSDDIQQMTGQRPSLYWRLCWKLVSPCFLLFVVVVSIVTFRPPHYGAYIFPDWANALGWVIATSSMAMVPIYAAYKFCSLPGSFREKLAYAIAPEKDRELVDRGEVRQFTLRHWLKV

The AC50 is the concentration giving half of the maximal activity seen. With `O=c1[nH]c2ccccc2n1CCN1CCN(c2cccc(C(F)(F)F)c2)CC1` [FLIBANSERIN], the AC50 in assay [1] is 0.003 µM; in assay [2], greater than 30 µM; at Prothrombin, greater than 10 µM; at Progesterone receptor [3], greater than 30 µM.
Consider `NC(=O)C1(N2CCCCC2)CCN(CCCC(=O)c2ccc(F)cc2)CC1` [PIPAMPERONE], for which the AC50 is 11.5 µM in assay [1], 2.92 µM in assay [2], greater than 30 µM on Prothrombin and greater than 30 µM at Progesterone receptor [3].
In the case of `O=NN(CCCl)C(=O)NC1CCCCC1` [LOMUSTINE], the AC50 (in assay [1]; in assay [2]; on Prothrombin; on Progesterone receptor [3]) was greater than 30 µM each time.
Take `COc1cccc2c1C(=O)c1c(O)c3c(c(O)c1C2=O)C[C@@](O)(C(=O)CO)C[C@@H]3O[C@H]1C[C@H](N)[C@H](O[C@@H]2CCCCO2)[C@H](C)O1` [PIRARUBICIN]: the AC50 (in assay [1]; in assay [2]; on Prothrombin; at Progesterone receptor [3]) was greater than 30 µM in each case.
As to `CCCCCCCCCCCCCCCC(=O)OC[C@H](COP(=O)([O-])OCC[N+](C)(C)C)OC(=O)CCCCCCCCCCCCCCC` [COLFOSCERIL PALMITATE], the AC50 (in assay [1]; in assay [2]; at Prothrombin; at Progesterone receptor [3]) was greater than 30 µM in each case.
For the compound `N=C(N)NCC1COc2ccccc2O1` (stereo not drawn) [GUANOXAN], the AC50 in assay [1] was 1.27 µM; in assay [2], greater than 30 µM; on Prothrombin it was greater than 30 µM; on Progesterone receptor [3], greater than 30 µM.
For `Cc1cccc(C)c1NC(=O)c1cc(S(N)(=O)=O)c(Cl)cc1O` [XIPAMIDE], the AC50 (in assay [1]; in assay [2]; on Prothrombin; at Progesterone receptor [3]) was greater than 30 µM throughout.
For `C=CCOc1ccc(CC(=O)O)cc1Cl` [ALCLOFENAC], the AC50 (in assay [1]; in assay [2]; on Prothrombin; on Progesterone receptor [3]) was greater than 30 µM throughout.
Regarding `CN1CCN(C(c2ccccc2)c2ccc(Cl)cc2)CC1` (stereo not drawn) [CHLORCYCLIZINE], the AC50 is 13.9 µM in assay [1], 0.225 µM in assay [2], greater than 30 µM on Prothrombin and greater than 30 µM at Progesterone receptor [3].
`CO[C@@]1(NC(=O)C(C(=O)O)c2ccc(O)cc2)C(=O)N2C(C(=O)O)=C(CSc3nnnn3C)CO[C@@H]21` (stereo partly drawn) [MOXALACTAM]: the AC50 (in assay [1]; in assay [2]; on Prothrombin; on Progesterone receptor [3]) was greater than 30 µM in each case.
Consider `OC[C@H]1NC[C@H](O)[C@@H](O)[C@H]1O`, for which the AC50 (in assay [1]; in assay [2]; at Prothrombin; at Progesterone receptor [3]) was greater than 30 µM each time.
Regarding `O=P1(N(CCCl)CCCl)NCCCO1` (stereo not drawn) [CYCLOPHOSPHAMIDE ANHYDROUS], the AC50 (in assay [1]; in assay [2]; on Prothrombin; at Progesterone receptor [3]) was greater than 30 µM in each case.
Turning to `O=C(O)[C@@H](S)[C@@H](S)C(=O)O`, the AC50 in assay [1] is greater than 30 µM; in assay [2], greater than 30 µM; on Prothrombin, 2.64 µM; at Progesterone receptor [3] it was greater than 30 µM.
In the case of `CC#CC(=O)N1CCC[C@H]1c1nc(-c2ccc(C(=O)Nc3ccccn3)cc2)c2c(N)nccn12` [ACALABRUTINIB], the AC50 (in assay [1]; in assay [2]; at Prothrombin; on Progesterone receptor [3]) was greater than 30 µM each time.
In the case of `O=C1[C@@H]2[C@H]3CC[C@H](C3)[C@@H]2C(=O)N1C[C@@H]1CCCC[C@H]1CN1CCN(c2nsc3ccccc23)CC1` [LURASIDONE], the AC50 on Prothrombin, on Progesterone receptor [4] and at Progesterone receptor [3] was greater than 30 µM each time.
In the case of `N#Cc1ccnc(N2C(=O)CC[C@H]2C(=O)N(c2cncc(F)c2)[C@H](C(=O)NC2CC(F)(F)C2)c2ccccc2Cl)c1` [IVOSIDENIB], the AC50 (in assay [1]; in assay [2]; on Prothrombin; on Progesterone receptor [3]) was greater than 30 µM in each case.
`CC(C)(Oc1ccc(Cl)cc1)C(=O)NC(=O)NCN1CCOCC1` [PLAFIBRIDE]: the AC50 (in assay [1]; in assay [2]; on Prothrombin; on Progesterone receptor [3]) was greater than 30 µM in each case.
`CCCCCCO[C@@H](C)c1cccc(-c2csc(NC(=O)c3cc(Cl)c(/C=C(\C)C(=O)O)c(Cl)c3)n2)c1OC` [LUSUTROMBOPAG]: the AC50 in assay [1] was 6.96 µM; in assay [2] it was greater than 10 µM; at Prothrombin, 19.3 µM; at Progesterone receptor [3] it was 9.34 µM.
In the same order, the values of `CNC1(c2ccccc2Cl)CCCCC1=O` (stereo not drawn) [KETAMINE] are greater than 30 µM, greater than 30 µM, greater than 30 µM and greater than 30 µM.
`CC1=C(C/C=C(\C)CCC[C@H](C)CCC[C@H](C)CCCC(C)C)C(=O)c2ccccc2C1=O` [PHYTONADIONE]: the AC50 (in assay [1]; in assay [2]; on Prothrombin; on Progesterone receptor [3]) was greater than 30 µM in each case.
Consider `CCCCCCCC/C=C\CCCCCCCC(=O)O` [OLEIC ACID], for which the half-maximal activity concentration (AC50) (in assay [1]; in assay [2]; at Prothrombin) was greater than 30 µM in each case.
Take `NC(=O)C1(N2CCCCC2)CCN(CCCN2c3ccccc3CCc3ccccc32)CC1` [CARPIPRAMINE]: the AC50 in assay [1] was 2.83 µM; in assay [2], 2.94 µM; at Prothrombin it was greater than 30 µM; at Progesterone receptor [3], greater than 30 µM.
Consider `CC(C)Nc1cccnc1N1CCN(C(=O)c2cc3cc(NS(C)(=O)=O)ccc3[nH]2)CC1` [DELAVIRDINE], for which the AC50 (in assay [1]; in assay [2]; at Prothrombin; on Progesterone receptor [3]) was greater than 30 µM in each case.
As for `CN1CCC(N(Cc2cccs2)c2ccccc2)CC1` [THENALIDINE], the AC50 in assay [1] was 8.65 µM; in assay [2] it was 1.61 µM; at Prothrombin it was greater than 30 µM; at Progesterone receptor [3], greater than 30 µM.
With `O=C(O)[C@H](O)[C@@H](O)[C@H](O)[C@H](O)CO` [GLUCONIC ACID], the AC50 (in assay [1]; in assay [2]; at Prothrombin; at Progesterone receptor [3]) was greater than 30 µM throughout.
As to `CC(C)NC[C@H](O)COc1ccc(O)cc1` [PRENALTEROL], the AC50 (in assay [1]; in assay [2]; at Prothrombin; on Progesterone receptor [3]) was greater than 30 µM each time.
Take `Cc1cc(C)cc(OCC2CNC(=O)O2)c1` (stereo not drawn) [METAXALONE]: the half-maximal activity concentration (AC50) (in assay [1]; in assay [2]; on Prothrombin; on Progesterone receptor [3]) was greater than 30 µM throughout.
As to `Cc1ccc(C(C)C)c(O)c1` [THYMOL], the AC50 (in assay [1]; in assay [2]; at Prothrombin; on Progesterone receptor [3]) was greater than 30 µM each time.
As to `C[C@]12CC[C@@H]3c4ccc(OC(=O)N(CCCl)CCCl)cc4CC[C@H]3[C@@H]1CC[C@@H]2OP(=O)(O)O` [ESTRAMUSTINE PHOSPHATE], the AC50 (in assay [1]; in assay [2]; on Prothrombin; at Progesterone receptor [3]) was greater than 30 µM in each case.
Turning to `C[C@@H](CN1CC(=O)NC(=O)C1)N1CC(=O)NC(=O)C1` [DEXRAZOXANE], the AC50 (in assay [1]; in assay [2]; on Prothrombin; on Progesterone receptor [3]) was greater than 30 µM in each case.
